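All cell lines were grown in 96-well plates and treated with compound for 48 hours. At the GI50, growth is halved.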 Activity calls are given as the source filed them. Cut-off read from the data, not from the text of the source: active = GI50 up to about 1.1 µM and inactive = higher.
Assays:
Experiment in all cases: NCI-60 cell line screen, 48 h
786-0 = tested on: 786-0
A498 = tested on: A498
COLO 205 = tested on: COLO 205
DU-145 = tested on: DU-145
K562 = tested on: K562
M14 = tested on: M14
MOLT-4 = tested on: MOLT-4
NCI-H226 = tested on: NCI-H226
PC-3 = tested on: PC-3
RPMI-8226 = tested on: RPMI-8226
RXF 393 = tested on: RXF 393
SK-MEL-28 = tested on: SK-MEL-28
SK-MEL-2 = tested on: SK-MEL-2
SK-MEL-5 = tested on: SK-MEL-5
SK-OV-3 = tested on: SK-OV-3
SNB-19 = tested on: SNB-19
SNB-75 = tested on: SNB-75
SR = tested on: SR
U-251 = tested on: U-251
UACC-62 = tested on: UACC-62

SMILES | GI50 (786-0) | GI50 (A498) | GI50 (COLO 205) | GI50 (DU-145) | GI50 (K562) | GI50 (M14) | GI50 (MOLT-4) | GI50 (NCI-H226) | GI50 (PC-3) | GI50 (RPMI-8226) | GI50 (RXF 393) | GI50 (SK-MEL-28) | GI50 (SK-MEL-2) | GI50 (SK-MEL-5) | GI50 (SK-OV-3) | GI50 (SNB-19) | GI50 (SNB-75) | GI50 (SR) | GI50 (U-251) | GI50 (UACC-62)
Cc1cc(=O)oc2cc(OC(=O)N(CCCl)CCCl)ccc12 | > 100 µM (inactive) | > 100 µM (inactive) | > 100 µM (inactive) | > 100 µM (inactive) | 68.5 µM (inactive) | > 100 µM (inactive) | 82.6 µM (inactive) | > 100 µM (inactive) | 46.8 µM (inactive) | 61.4 µM (inactive) | > 100 µM (inactive) | > 100 µM (inactive) | > 100 µM (inactive) | > 100 µM (inactive) | > 100 µM (inactive) | > 100 µM (inactive) | 50.7 µM (inactive) | 63.2 µM (inactive) | > 100 µM (inactive) | 29.4 µM (inactive)
O=C(c1ccc(Cl)c(Cl)c1)N(Cc1cccnc1)C(=S)N(Cc1cccnc1)C(=O)c1ccc(Cl)c(Cl)c1 | 20.4 µM (inactive) | 33.9 µM (inactive) | 15.6 µM (inactive) | 33.2 µM (inactive) | 30.3 µM (inactive) | 21.2 µM (inactive) | 37.3 µM (inactive) | 31.8 µM (inactive) | 22.1 µM (inactive) | 5.5 µM (inactive) | 28.4 µM (inactive) | 52.5 µM (inactive) | 25.1 µM (inactive) | 27.7 µM (inactive) | > 100 µM (inactive) | 27.9 µM (inactive) | 38.4 µM (inactive) | 17.5 µM (inactive) | 29.3 µM (inactive) | 50.7 µM (inactive)
O=C(O)C1=NN(c2ccc(S(=O)(=O)O)cc2)C2(C1)SCC(=O)N2c1nc2ccccc2s1 (stereo not given) | > 100 µM (inactive) | > 100 µM (inactive) | > 100 µM (inactive) | > 100 µM (inactive) | > 100 µM (inactive) | > 100 µM (inactive) | > 100 µM (inactive) | 5.3 µM (inactive) | > 100 µM (inactive) | > 100 µM (inactive) | > 100 µM (inactive) | > 100 µM (inactive) | > 100 µM (inactive) | > 100 µM (inactive) | > 100 µM (inactive) | > 100 µM (inactive) | > 100 µM (inactive) | > 100 µM (inactive) | > 100 µM (inactive) | > 100 µM (inactive)
CN(C)c1ccc(/C=C/C(=O)c2cc(C(C)(C)C)c(O)c(C(C)(C)C)c2)cc1 | 1.3 µM (inactive) | 1.91 µM (inactive) | 0.348 µM (active) | 2 µM (inactive) | 0.979 µM (active) | 1.15 µM (inactive) | 3.85 µM (inactive) | 1.85 µM (inactive) | 1.22 µM (inactive) | 1.55 µM (inactive) | 0.204 µM (active) | > 60 µM (inactive) | 1.08 µM (active) | 0.774 µM (active) | 1.74 µM (inactive) | 3.73 µM (inactive) | 0.579 µM (active) | 0.546 µM (active) | 0.946 µM (active) | 0.637 µM (active)
COC(=O)c1c(O)ccc2c1c1cc3ccccc3cc1n2Cc1cc(OC)cc(OC)c1 | 3.55 µM (inactive) | 9.02 µM (inactive) | 10.1 µM (inactive) | 2.53 µM (inactive) | 1.96 µM (inactive) | 2.25 µM (inactive) | 21.7 µM (inactive) | 14.9 µM (inactive) | 2.46 µM (inactive) | 1.96 µM (inactive) | 3.96 µM (inactive) | 1.66 µM (inactive) | 1.22 µM (inactive) | 1.34 µM (inactive) | 1.43 µM (inactive) | 5.82 µM (inactive) | 2.51 µM (inactive) | 1.04 µM (active) | 4.45 µM (inactive) | 3.13 µM (inactive)

From ChEMBL document CHEMBL1201862, “PubChem BioAssay data set” (2004)
